Structures can show the parent of a compound that is named as a salt.
Assay: Plasma pharmacokinetics in Sprague-Dawley rats after IV dose
Settings: rat, in vivo
Procedure: The pharmacokinetics were then compared for free drug and membrane entrapped GI147211 liposomes dosed at 5 mg/kg in Sprague Dawley rats. Rats were dosed at 1 mg/kg to compare free GI147211 to passive and actively loaded liposomes.
Pharmacokinetic studies were carried out on various liposomal formulations of GI147211 in rats and mice by IV bolus administration. Plasma samples were precipitated with acetonitrile and the supematant for each sample was analyzed by reverse phase HPLC using isocratic elution and monitoring fluorescence. […] Concentration values were determined for unknown samples and quality control samples based on interpolation using a linear fit of the standard samples. In each study the average plasma concentration at each time point was calculated and utilized in the pharmacokinetic analysis. Noncompartmental analysis were carried out using WinNonlin™ (Standard Edition, version 1.5 ©, Scientific Consulting, Inc.) and the following parameters were calculated: the maximum concentration extrapolated at zero time (Cmax), the area under the curve from zero to infinite time (AUC total), the terminal phase half life (t½), the clearance rate (C1), and the volume of distribution at steady state (Vss).

Which AUC (1 mg/kg) does the source give for `CCC1(O)C(=O)OCc2c1cc1n(c2=O)Cc2c-1nc1cc3c(cc1c2CN1CCN(C)CC1)OCCO3` (stereo in doubt) [GI147211, 7-(4-methylpiperazinomethylene)-10,11-ethylenedioxy-20(S)-camptothecin dihydrochloride] here?
The AUC was 0.136 µg·h/mL.

What about the Cmax (1 mg/kg) of the same molecule?
The Cmax was 0.1 µg/mL.

What about the Vd (1 mg/kg) of the same molecule?
The Vd was 9.23 L/kg.

And the clearance (1 mg/kg)?
Its clearance is 7.38 L/h/kg.

What about the half-life (1 mg/kg) of the same molecule?
Its half-life is 1.17 h.

What about the AUC (5 mg/kg) of the same molecule?
The AUC was 0.64 µg·h/mL.

What about the Cmax (5 mg/kg) of the same molecule?
The Cmax was 0.69 µg/mL.

What about the clearance (5 mg/kg) of the same molecule?
The clearance was 7.92 L/h/kg.

What about the half-life (5 mg/kg) of the same molecule?
The half-life was 2.45 h.

— patent publication US6740335B1, “Liposomal camptothecin formulations” (priority 1997, dated 2004)
